This is an account of results in patent US20210115000A1, “NILE RED DERIVATIVES FOR IMPROVED RATIOMETRIC IMAGING FOR NERVE SPECIFIC CONTRAST” (Oregon Health & Sciences University, priority 2018, published 2021).

Structures are written as SMILES.

Data set [1] concerns U2OS human osteosarcoma cell line. Briefly: Nile Red derivative cell staining and imaging, fixed and live cells. To be noted: U2OS live, 1 μM, 5 min, imaged in staining solution. The format is cell-based. The method, then: The U2OS human osteosarcoma cell line was cultured in Dulbecco's Modified Eagle Medium (DMEM, Thermo Fisher Scientific, Waltham, Mass.) with 10% fetal bovine serum (FBS, VWR, Radnor, Pa.) and 1% Penicillin/Steptomycin 100× (Thermo Fisher Scientific) at 37° C. in 5% CO2. For live cell imaging studies, Fluorobrite DMEM media (Thermo Fisher Scientific) was used in place of DMEM. For imaging studies, cells were grown in 96-well glass bottom plates (Cellvis, Mountain View, Calif.) for 48 hours, with a final confluence of <80%. Nile Red and its derivatives were prepared at 1-10 mM stock concentration in DMSO and diluted into media or buffer for cell staining and imaging studies.
Cell staining studies were completed on fixed and live U2OS cells using Nile Red and each synthesized Nile Red derivative described as follows. For fixed cell staining, cells were washed once with 1× phosphate buffered saline (PBS), then fixed with 4% paraformaldehyde (PFA) for 20 minutes at room temperature. The PFA was removed and each well was washed three times for 5 mins per wash (3×5 mins) with 1×PBS. The Nile Red fluorophores were diluted into 1×PBS to a final concentration of 1 μM, incubated for 5 minutes with the cells, and images were collected without washing. Live cell staining was completed using two methods. First, cells were washed once with Fluorobrite DMEM. The Nile Red fluorophore solution was prepared in Fluorobrite DMEM by diluting to a final concentration of 1 μM for staining, where cells were stained for 5 minutes. The fluorophore containing media was removed and the cells were fixed for 20 minutes using 4% PFA. Cells were then washed 3×5 mins with Fluorobrite DMEM prior to imaging. Second, cells were washed with Fluorobrite DMEM without FBS once for 5 minutes. Nile Red fluorophore solutions were prepared in Fluorobrite without FBS at 1 μM final concentration for cell staining. The cells were stained with the prepared solution for 5 minutes and imaged in the staining solution. All images were collected at their ideal exposure times to permit visualization of stained intracellular structures.
All ex vivo and cellular fluorescence and white light images were collected using a Zeiss AxioObserver inverted fluorescence microscope (Carl Zeiss, Oberkochen, Germany). All cell images were collected at 40× magnification and all tissue section images were collected at 10× magnification. Fluorescence excitation was completed using a Photofluor II broad band light source (89 North, Burlington, Vt.) filtered with a 545±12.5 nm bandpass excitation filter. Fluorescence images were collected using a 605±35 nm bandpass emission filter and a AxioCam 506 monochromo camera (Zeiss). All Filters were Purchased from Chroma Technologies (Bellows Falls, Vt.).

The subject of data set [2] is CD-1 mouse sciatic nerve and surrounding muscle and adipose tissues. Briefly: Ex vivo tissue section staining, imaging and fluorescence quantification. To be noted: 100 μM, 40 min, sections with nerve, muscle, adipose. As for the experimental part:
Cryosections of CD-1 mouse sciatic nerve and surrounding muscle and adipose tissues from unrelated experiments were cut from optimal cutting temperature (OCT, Fisher Scientific, Hampton, N.H.) embedded frozen tissues. Cryosectioned tissues were captured on superfrost plus slides (Fisher Scientific) at 10 μm thickness. The tissue sections were washed with 1×PBS for 2 minutes to remove OCT, and then fixed with 2% PFA for 15 mins. The tissue sections were then washed with 0.1% Tween 20 in 1×PBS (3×5 mins), followed by incubation with 100 μM of Nile Red and each Nile Red derivative formulated using 10% DMSO, 5% Kolliphore (Sigma Aldrich, St. Louis, Mo.), 63.75% FBS, and 21.25% 1× PBS as previously described.^26 Tissue sections were incubated with the formulated fluorophores for 40 minutes at room temperature, followed by washing with blank formulation not containing fluorophore (2×5 mins). Each tissue section was then washed with 1×PBS (2×5 mins), fixed for 15 minutes using 2% PFA, followed by a final wash with 1×PBS for 5 mins before mounting in glycerol (Fisher Scientific). Images were collected at an exposure time of 650 ms for all Nile Red and Nile Red derivative stained sections. Four tissue sections were stained for Nile Red and each Nile Red derivative, facilitating adipose to muscle and adipose to nerve contrast ratio quantification where tissue intensities were quantified using region of interest analysis with custom written MatLab code (The MathWorks, Natick, Mass.). For each tissue type, a representative area was selected, where a threshold based mask was set to determine tissue from background. The mean tissue intensity was calculated in adipose, nerve and muscle tissues as the intensity per second and used to calculate the adipose to nerve and adipose to muscle contrast ratios. All ex vivo and cellular fluorescence and white light images were collected using a Zeiss AxioObserver inverted fluorescence microscope (Carl Zeiss, Oberkochen, Germany). All cell images were collected at 40× magnification and all tissue section images were collected at 10× magnification. Fluorescence excitation was completed using a Photofluor II broad band light source (89 North, Burlington, Vt.) filtered with a 545±12.5 nm bandpass excitation filter. Fluorescence images were collected using a 605±35 nm bandpass emission filter and a AxioCam 506 monochromo camera (Zeiss). All Filters were Purchased from Chroma Technologies (Bellows Falls, Vt.).

Data set [3] has as its system sciatic nerve or brachial plexus nerve sites (adipose, nerve, muscle tissue). Put plainly: In vivo imaging following direct/topical administration on rodent nerve sites. To be noted: immediately following direct administration. On the set-up: species or system male CD-1 mice. From the text:
In vivo images were acquired using a previously published, custom-built small animal fluorescence imaging system, described briefly here.^27 Fluorescent images were obtained using a Qimaging EXi Blue monochrome camera (Surrey, British Columbia, CA) with a removable Bayer mask for collection of co-registered color and fluorescence images. A Photofluor II broad band light source (89 North) was expanded onto the surgical field through a liquid light guide and used unfiltered for white light illumination. Nile Red and NR5 were excitated using a 545 t 12.5 nm bandpass filter, while fluorescence emission images were collected with a 605±35 nm bandpass filter. Oxazine 4 (Exciton, West Chester, Ohio) was used for nerve and adipose co-staining and ratiometic imaging studies. Oxazine 4 was excited using a 620±30 nm bandpass filter, while fluorescence emission images were collected through a 700±37.5 nm bandpass filter. Approval for the use of animals in the study was obtained from the Institutional Animal Care and Use Committee (IACUC) at Oregon Health and Science University (OHSU). In vivo staining studies were carried out on male CD-1 mice using an optimized direct/topical administration protocol.^2 Staining was performed concurrently on no more than two nerve sites (sciatic nerve or brachial plexus) per mouse. Nile Red and all Nile Red derivatives were formulated in a previously published co-solvent formulation (10% DMSO, 5% Kolliphor, 63.75% serum and 21.25% PBS^14) at a final concentration of 100 μM. Each formulated fluorophore was incubated for 5 minutes on the nerve site (n=4 nerve sites/fluorophore), followed by 9 short flushes with PBS. The nerve site was then incubated with blank co-solvent not containing fluorophore for 5 minutes, followed again by 9 short flushes with PBS.

A short description of data set [4]: Spectroscopic analysis: absorbance, emission and quantum yield of Nile Red derivatives. The conditions noted are these: in DMSO. The format is physicochemical. The method, then:
Tandem liquid chromatography mass spectroscopy (LCMS) analysis (Agilent 1260 LC system with a 6224 time of flight (TOF) MS, Agilent, Santa Clara, Calif.) was performed using a 2.7 micron C18 column (4.6×50 mm, Agilent). High performance liquid chromatography (HPLC) purification (Agilent 1260 system with a preparative pump) was performed using a 5 micron C18 column (21.2×150 mm, Agilent). For both HPLC and LCMS, the mobile phase consisted of HPLC grade acetonitrile and water, treated with 0.1% formic acid. Spectroscopic analysis was performed on a Spectramax M5 spectrometer (Molecular Devices, Sunnyvale, Calif.) using a quartz cuvette with a 1 cm pathlength. Quantum yield was calculated according to equation (1).
Where Ø is the quantum yield, F is the integrated fluorescence intensity, f is the absorbance at the excitation wavelength and n is the refractive index of the solvent. S refers to the quantum yield standard (Rhodamine B)^25 and X refers to the unknown sample.

In data set [5] the test system is nerve, adipose and muscle tissue at nerve sites. Put plainly: In vivo co-staining with Oxazine 4, ratiometric imaging and ROC curve analysis. On the set-up: species or system male CD-1 mice. The conditions noted are these: 30 min after staining compared to immediately following staining. From the text: In vivo images were acquired using a previously published, custom-built small animal fluorescence imaging system, described briefly here.^27 Fluorescent images were obtained using a Qimaging EXi Blue monochrome camera (Surrey, British Columbia, CA) with a removable Bayer mask for collection of co-registered color and fluorescence images. A Photofluor II broad band light source (89 North) was expanded onto the surgical field through a liquid light guide and used unfiltered for white light illumination. Nile Red and NR5 were excitated using a 545 t 12.5 nm bandpass filter, while fluorescence emission images were collected with a 605±35 nm bandpass filter. Oxazine 4 (Exciton, West Chester, Ohio) was used for nerve and adipose co-staining and ratiometic imaging studies. Oxazine 4 was excited using a 620±30 nm bandpass filter, while fluorescence emission images were collected through a 700±37.5 nm bandpass filter. Approval for the use of animals in the study was obtained from the Institutional Animal Care and Use Committee (IACUC) at Oregon Health and Science University (OHSU). In vivo staining studies were carried out on male CD-1 mice using an optimized direct/topical administration protocol.^2 Staining was performed concurrently on no more than two nerve sites (sciatic nerve or brachial plexus) per mouse. Nile Red and all Nile Red derivatives were formulated in a previously published co-solvent formulation (10% DMSO, 5% Kolliphor, 63.75% serum and 21.25% PBS^14) at a final concentration of 100 μM. Each formulated fluorophore was incubated for 5 minutes on the nerve site (n=4 nerve sites/fluorophore), followed by 9 short flushes with PBS. The nerve site was then incubated with blank co-solvent not containing fluorophore for 5 minutes, followed again by 9 short flushes with PBS. In vivo co-staining was completed with (1) Nile Red and Oxazine 4 as well as (2) NR5 and Oxazine 4. For these studies, co-solvent formulated Oxazine 4 ([…]) was incubated on the nerve site for 5 minutes followed by 9 short flushes with PBS. The co-solvent formulated Nile Red or NR5 (100 μM) was then incubated on the nerve site for 5 minutes and also followed by 9 short flushes with PBS. Co-registered (1) Nile Red and Oxazine 4 or (2) NR5 and Oxazine 4 images were collected from n=4 nerve sites per groups (1) and (2). Ratiometric images were calculated and quantified using region of interest analysis on the white light images to identify the nerve, adipose and muscle tissue types. Due to the known cross talk of Oxazine 4 into the Nile Red channel,^2 the Oxazine 4 image was subtracted from the Nile Red or NR5 image resulting in an image of only adipose. The ratiometric images were then calculated as the Oxazine 4 image minus the corrected Nile Red or NR5 image divided by the corrected Nile Red or NR5 image. Receiver Operator Characteristic (ROC) curve analysis was performed to assess differences between the ratiometric images, where the area under the curve (AUC) was used as the metric to differentiate between groups (1) and (2) using custom written MatLab code.^28

As to `CCN(CC)c1ccc2nc3c4cc(-c5ccc(C#N)cc5)ccc4c(=O)cc-3oc2c1` [NR12, 4-(9-(diethylamino)-5-oxo-5H-benzo[a]phenoxazin-2-yl)benzonitrile], in data set [1], the “structures observed in live cells without washing” value is recorded as “Prominent lipid droplet like structures”. The “tissue staining specificity on mouse tissue sections” value in data set [2] is on record as “adipose specificity”. In data set [3], the “adipose to muscle ratio” value was “lower than Nile Red, adipose to muscle contrast was similar” and the “adipose to nerve ratio” value is reported as “increased contrast over control autofluorescence with similar adipose to nerve contrast”. In addition, in data set [4], the “Max Abs” value amounted to 560 nm, the “Max Em” value worked out at 635 nm and the “Stokes Shift” value is 75 nm.
Turning to `CC/N=c1/cc2oc3cc(NCC)c(C)cc3nc-2cc1C` [Oxazine 4, reference compound], the “ROC AUC of nerve-to-muscle contrast, change” value in data set [5] is listed as “improved values”.
